Experimental findings from article PMC4855506 (Journal of molecular and cellular cardiology, 2011) are described below.

A short description of the data set: coupled proteolysis-cGMP elevation bioassay with protease inhibitors. Type of data set: in vitro ADME, human.
Setting [1] is: Fig. 2B, 30 min, 37 °C, human kidney membranes, 293-GC-A cells, n=4.

On to B-type natriuretic peptide [BNP], for which, under setting [1], the “effect of leupeptin on degradation” value is given as “completely blocked the degradation” and the “effect of phosphoramidon on degradation” value was “failed to preserve the activity”. In addition, where the note is “Fig. 2B, 30 min, 37 °C, 293-GC-A cells, n=4”, the “effect of boiling the membranes before peptide exposure” value was “blocked inactivation”.

As to C-type natriuretic peptide [CNP], where the note is “Fig. 2A, 30 min, 37 °C, boiled human kidney membranes, n=8”, the “effect of boiling the membranes prior to peptide exposure” value was “abolished membrane-dependent inactivation”. In addition, the “effect of actinonin together with phosphoramidon” value (Fig. 2A, 30 min, 37 °C, human kidney membranes, n=8) was “did not further increase activity above that seen with phosphoramidon alone”. The “activity loss blocked by phosphoramidon” value (Fig. 2A, NEP inhibitor phosphoramidon, 30 min, 37 °C, human kidney membranes, n=8) is “about 40%”. In addition, for the setting “Fig. 2A, meprin inhibitor actinonin, 30 min, 37 °C, human kidney membranes, n=8”, the “effect of actinonin alone on inactivation” value is “did not block inactivation”. The “effect of leupeptin on inactivation” value (Fig. 2A, serine-threonine-cysteine protease inhibitor leupeptin, 30 min, 37 °C, human kidney membranes, n=8) was “did not statistically increase the bioactivity”. Where the note is “phosphoramidon, human kidney membranes, 30 min, 37 °C (Fig. 2A)”, the “increase of bioactivity on inhibition of NEP in kidney membranes” value came to 8 fold.

In the case of Dendroaspis natriuretic peptide [DNP], for the setting “Fig. 2C, 120 min, 37 °C, human kidney membranes, human GC-A read-out, n=4”, the “activity in the presence of phosphoramidon” value is “significantly less than control values”.
